US20060039986A1, “Functional material, process for producing functional material and functional member and environment modifying apparatus using the functional material” (Kabushiki Kaisha Erubu, priority 2004, published 2006)

Assay: Stability of ascorbic acid in water of adjusted pH (DPPH and HPLC)
Assay type: physicochemical
Conditions: 5 ppm in 25° C. water
Procedure: The free ascorbic-acid concentrations were measured immediately after they were prepared so that ascorbic acid was contained in an amount of 5 ppm in 25° C. water whose pH was adjusted to 1, 3, 4, 5, 7, 9 and 11, respectively, and after 24 hours. The free ascorbic acid concentrations were measured by the above-described DPPH radical elimination method and an HPLC method. The HPLC method uses an ODS as the column, and uses an ultraviolet spectrophotometer (wavelength 254 nm) as the detecting device to carry out the measurement. The results are illustrated in FIG. 12.

O=C1O[C@H]([C@@H](O)CO)C(O)=C1O [ascorbic acid]
pH at which ascorbic acid could be stabilized more (24 hours): ≤ 3
pH boundary at or below which the stability of ascorbic acid improved (24 hours): ~5
stability of ascorbic acid versus pH (in words) (pH 1, 3, 4, 5, 7, 9, 11, immediately and after 24 hours (FIG. 12)): the lower the pH was the more the stability of ascorbic acid improved
